Data: the supplement of paper PMC10307832

Columns and labels:
Assay in all cases: relative viability (nuclei count vs DMSO), 5 days (fraction); higher = more cells survive
kb NB 142-70 + OSI-027 = compound: C1CSC2=C(C(=O)N1)SC3=C2C=C(C=C3)O [kb NB 142-70] + COc1cccc2cc(-c3nc([C@H]4CC[C@H](C(=O)O)CC4)n4ncnc(N)c34)[nH]c12 [OSI-027] (partner 0.5 µM)
Method in brief: (§1)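 Lung cancer cell lines were seeded in 1536-well plates and dosed by pin tool the next day, with either a single drug or a fixed anchor-drug dose combined with five library-drug doses (not always all listed) spaced in √10 steps. Five days later, one step fixed the cells and stained their nuclei (final 0.05% Triton X-100, 1% formaldehyde, 1 ug/ml Hoechst), and nuclei were counted on 4× images. Relative viability is the nuclei count in treated wells divided by the count in vehicle wells, and each value is the median of duplicate plates.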

[1] = compound: NCC(=O)Nc1ccc(-n2nc(C(F)(F)F)cc2-c2ccc3c(ccc4ccccc43)c2)cc1 + CC(=O)c1c(C)c2cnc(Nc3ccc(N4CCNCC4)cn3)nc2n(C2CCCC2)c1=O [Palbociclib] (partner 0.5 µM)
Method in brief: as §1

[2] = compound: NCC(=O)Nc1ccc(-n2nc(C(F)(F)F)cc2-c2ccc3c(ccc4ccccc43)c2)cc1 + CC(C)C[C@H](NC(=O)[C@H](Cc1ccccc1)NC(=O)c1cnccn1)B(O)O [Bortezomib] (partner 0.002 µM)
Method in brief: as §1

[3] = compound: NCC(=O)Nc1ccc(-n2nc(C(F)(F)F)cc2-c2ccc3c(ccc4ccccc43)c2)cc1 + CS(=O)(=O)CCNCc1ccc(-c2ccc3ncnc(Nc4ccc(OCc5cccc(F)c5)c(Cl)c4)c3c2)o1 [Lapatinib] (partner 2 µM)
Method in brief: as §1

| Cell Line | relative viability (kb NB 142-70 + OSI-027; first compound 0.1 µM) | relative viability (kb NB 142-70 + OSI-027; first compound 1 µM) | relative viability (kb NB 142-70 + OSI-027; first compound 3.162 µM) | relative viability ([1]; first compound 0.02 µM) | relative viability ([1]; first compound 0.06325 µM) | relative viability ([1]; first compound 0.2 µM) | relative viability ([1]; first compound 0.6325 µM) | relative viability ([1]; first compound 2 µM) | relative viability ([2]; first compound 0.02 µM) | relative viability ([2]; first compound 0.06325 µM) | relative viability ([2]; first compound 0.2 µM) | relative viability ([2]; first compound 0.6325 µM) | relative viability ([2]; first compound 2 µM) | relative viability ([3]; first compound 0.02 µM) | relative viability ([3]; first compound 0.06325 µM) | relative viability ([3]; first compound 0.2 µM) | relative viability ([3]; first compound 0.6325 µM) | relative viability ([3]; first compound 2 µM) |
| --- | --- | --- | --- | --- | --- | --- | --- | --- | --- | --- | --- | --- | --- | --- | --- | --- | --- | --- |
| NCI-H2228 | 0.575 | 0.483 | 0.317 | 0.711 | 0.78 | 0.802 | 0.653 | 0.656 | 0.749 | 0.935 | 1.01 | 1.38 | 0.914 | 1.1 | 1.21 | 1.14 | 0.935 | 0.804 |
| NCI-H1734 | 0.584 | 0.509 | 0.396 | 0.361 | 0.343 | 0.345 | 0.333 | 0.356 | 1.1 | 0.957 | 0.886 | 1.02 | 0.891 | 1.05 | 1.01 | 1.15 | 1.03 | 0.853 |
| PC-14 | 0.754 | 0.962 | 0.609 | 0.494 | 0.557 | – | 0.524 | 0.46 | 0.966 | 0.822 | 1.06 | 0.895 | 0.858 | 0.381 | 0.277 | 0.305 | 0.305 | 0.37 |
| NCI-H1915 | 0.648 | 0.619 | 0.396 | 0.535 | 0.509 | 0.517 | 0.507 | 0.541 | 0.889 | 1.01 | 0.964 | 0.932 | 1.03 | 0.922 | 0.939 | 0.942 | 0.95 | 0.996 |
| NCI-H1666 | 0.786 | 0.875 | 0.875 | 0.658 | 0.677 | 0.69 | 0.616 | 0.624 | 0.788 | 0.769 | 1.03 | 0.951 | 0.906 | 0.59 | 0.61 | 0.588 | 0.744 | 0.604 |
| HCC-366 | 1.04 | 0.894 | 0.742 | 0.399 | 0.449 | 0.378 | 0.394 | 0.355 | 1.17 | 1.03 | 1.04 | 1.02 | 1.01 | 1.04 | 1.07 | 1.12 | 0.997 | 0.698 |
| SW 1573 | 0.618 | 0.47 | 0.266 | 0.409 | 0.466 | 0.344 | 0.384 | 0.36 | 1.16 | 1.28 | 1.05 | 0.894 | 1.02 | 1.17 | 1 | 1.17 | 0.978 | 1.08 |
| NCI-H661 | 0.723 | 0.717 | 0.61 | 0.412 | 0.402 | 0.39 | 0.416 | 0.433 | 0.785 | 0.853 | 0.737 | 0.784 | 0.762 | 0.526 | 0.521 | 0.44 | 0.445 | 0.556 |
| PC-3 [JPC-3] | 0.763 | 0.835 | 0.737 | 0.536 | 0.561 | 0.578 | 0.524 | 0.571 | 0.763 | 0.853 | 0.8 | 0.816 | 0.929 | 0.411 | 0.458 | 0.428 | 0.444 | 0.528 |
| LC-2-ad | 0.779 | 0.842 | 0.699 | 0.507 | 0.462 | 0.463 | 0.469 | 0.473 | 1.1 | 1.03 | 0.997 | 0.912 | 1.12 | 0.967 | 0.932 | 1.02 | 0.96 | 1.06 |
| CAL-12T | 0.857 | 0.719 | 0.444 | 0.527 | 0.481 | 0.462 | 0.588 | 0.423 | 0.899 | 1.09 | 0.967 | 0.931 | 1.11 | 0.671 | 0.823 | 0.672 | 0.709 | 0.679 |
| RERF-LC-KJ | 0.566 | 0.643 | 0.593 | 0.936 | 1.2 | 1.03 | 1.06 | 1.02 | 1.11 | 1.19 | 1.15 | 1.26 | 1.14 | 0.955 | 0.828 | 0.909 | 0.891 | 0.82 |
| NCI-H1650 | 0.612 | 0.755 | 0.483 | 0.377 | 0.37 | 0.225 | 0.319 | 0.343 | 0.235 | 0.215 | 0.188 | 0.191 | 0.195 | 0.812 | 0.797 | 0.472 | 0.801 | 0.929 |
| BEN | 0.306 | 0.301 | 0.202 | 0.441 | 0.475 | 0.473 | 0.49 | 0.465 | 0.817 | 0.852 | 0.763 | 0.701 | 0.576 | 0.738 | 1.11 | 0.701 | 0.708 | 0.542 |
| EMC-BAC-2 | 0.361 | 0.422 | 0.338 | 0.514 | 0.513 | 0.537 | 0.518 | 0.532 | 1.02 | 1.19 | 1.1 | 1.07 | 1.1 | 0.859 | 0.925 | 0.903 | 0.9 | 0.891 |
| LU99A | 0.325 | 0.327 | 0.317 | 0.418 | 0.474 | 0.434 | 0.487 | 0.438 | 1.14 | 1.27 | 1.06 | 1.07 | 1.1 | 0.943 | 1.13 | 1.07 | 0.987 | 0.944 |
| ABC-1 | 0.481 | 0.506 | 0.346 | 0.725 | 0.592 | – | 0.807 | 0.658 | 0.306 | 0.321 | – | 0.226 | 0.267 | 1.26 | 1.01 | 0.983 | 1.05 | 1.11 |
| NCI-H2347 | 0.461 | 0.416 | 0.384 | 0.426 | 0.384 | 0.448 | 0.473 | 0.419 | 0.956 | 1.18 | 1.02 | 1.12 | 0.945 | 0.883 | 0.939 | 0.955 | 1.03 | 0.884 |
